Like-named read-outs stand apart in the source and are kept apart here.
Experiments:
[1] = tested on: IRON/ASCORBATE OXIDOREDUCTASE FAMILY PROTEIN, PUTA (Tb427.02.6180); experiment: Multitargeted bead mixture competition; type: binding, T. brucei; conditions: for fold change: PUTATIVE
[2] = biological target: T1, HeLa cell extract proteins (Homo sapiens, UniProt Q8NCG7); type: binding
T1 construct: endogenous in cells; host or cells: HeLa cell extract
T1 sequence (Q8NCG7 1-672): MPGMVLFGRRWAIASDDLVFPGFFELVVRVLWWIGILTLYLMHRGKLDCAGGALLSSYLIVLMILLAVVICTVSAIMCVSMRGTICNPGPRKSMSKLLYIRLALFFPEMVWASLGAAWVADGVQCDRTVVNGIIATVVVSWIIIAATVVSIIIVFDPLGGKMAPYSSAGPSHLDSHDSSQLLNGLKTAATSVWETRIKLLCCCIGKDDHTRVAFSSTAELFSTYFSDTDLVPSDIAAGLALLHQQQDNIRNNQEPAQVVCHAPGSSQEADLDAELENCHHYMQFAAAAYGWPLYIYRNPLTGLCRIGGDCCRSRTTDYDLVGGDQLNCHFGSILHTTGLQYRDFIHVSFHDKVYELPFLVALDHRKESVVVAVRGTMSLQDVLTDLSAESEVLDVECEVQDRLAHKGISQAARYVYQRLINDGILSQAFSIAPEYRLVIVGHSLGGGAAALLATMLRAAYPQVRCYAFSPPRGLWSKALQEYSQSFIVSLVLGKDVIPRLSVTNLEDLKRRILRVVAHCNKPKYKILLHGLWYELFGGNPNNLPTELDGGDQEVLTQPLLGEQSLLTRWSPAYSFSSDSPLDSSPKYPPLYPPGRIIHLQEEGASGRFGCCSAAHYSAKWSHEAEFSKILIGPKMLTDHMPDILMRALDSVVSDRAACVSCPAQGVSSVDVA

[3] = biological target: T2, HeLa cell extract proteins (Homo sapiens, UniProt Q9Y573); type: binding
T2 construct: endogenous in cells; host or cells: HeLa cell extract
T2 sequence (Q9Y573 1-584): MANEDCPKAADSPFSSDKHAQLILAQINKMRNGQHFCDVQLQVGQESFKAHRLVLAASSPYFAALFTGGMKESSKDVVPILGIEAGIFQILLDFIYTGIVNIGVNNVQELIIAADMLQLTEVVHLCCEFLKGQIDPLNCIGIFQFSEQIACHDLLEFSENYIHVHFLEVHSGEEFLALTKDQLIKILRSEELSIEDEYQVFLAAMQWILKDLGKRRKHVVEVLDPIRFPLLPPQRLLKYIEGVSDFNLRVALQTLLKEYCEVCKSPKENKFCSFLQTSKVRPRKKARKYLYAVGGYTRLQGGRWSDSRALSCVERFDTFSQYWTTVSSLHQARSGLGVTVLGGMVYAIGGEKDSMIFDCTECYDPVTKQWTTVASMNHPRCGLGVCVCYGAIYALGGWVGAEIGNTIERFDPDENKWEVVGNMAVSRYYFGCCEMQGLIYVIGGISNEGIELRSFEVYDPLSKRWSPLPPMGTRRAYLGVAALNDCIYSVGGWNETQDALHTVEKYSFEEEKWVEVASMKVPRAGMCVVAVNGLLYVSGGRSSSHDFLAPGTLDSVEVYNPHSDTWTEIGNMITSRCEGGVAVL

[4] = biological target: T3, HeLa cell extract proteins (Homo sapiens, UniProt Q8NF37); type: binding
T3 construct: endogenous in cells; host or cells: HeLa cell extract
T3 sequence (Q8NF37 1-534): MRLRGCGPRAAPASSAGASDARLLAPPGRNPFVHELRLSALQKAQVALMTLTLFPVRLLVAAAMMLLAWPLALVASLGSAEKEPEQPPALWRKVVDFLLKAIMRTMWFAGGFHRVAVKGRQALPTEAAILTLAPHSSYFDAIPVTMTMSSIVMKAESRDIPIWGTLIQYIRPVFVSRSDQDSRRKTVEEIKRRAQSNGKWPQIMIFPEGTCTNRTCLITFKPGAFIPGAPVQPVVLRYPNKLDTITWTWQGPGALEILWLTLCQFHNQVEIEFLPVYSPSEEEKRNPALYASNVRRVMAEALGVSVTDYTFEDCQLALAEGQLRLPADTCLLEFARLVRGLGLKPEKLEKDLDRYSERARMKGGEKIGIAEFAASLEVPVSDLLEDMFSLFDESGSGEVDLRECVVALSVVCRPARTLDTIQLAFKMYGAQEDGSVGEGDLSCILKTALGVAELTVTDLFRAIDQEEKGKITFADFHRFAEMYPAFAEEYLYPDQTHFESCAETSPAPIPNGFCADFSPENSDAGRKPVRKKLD

[5] = biological target: T4, HeLa cell extract proteins (Homo sapiens, UniProt P57740); type: binding
T4 construct: endogenous in cells; host or cells: HeLa cell extract
T4 sequence (P57740 1-925): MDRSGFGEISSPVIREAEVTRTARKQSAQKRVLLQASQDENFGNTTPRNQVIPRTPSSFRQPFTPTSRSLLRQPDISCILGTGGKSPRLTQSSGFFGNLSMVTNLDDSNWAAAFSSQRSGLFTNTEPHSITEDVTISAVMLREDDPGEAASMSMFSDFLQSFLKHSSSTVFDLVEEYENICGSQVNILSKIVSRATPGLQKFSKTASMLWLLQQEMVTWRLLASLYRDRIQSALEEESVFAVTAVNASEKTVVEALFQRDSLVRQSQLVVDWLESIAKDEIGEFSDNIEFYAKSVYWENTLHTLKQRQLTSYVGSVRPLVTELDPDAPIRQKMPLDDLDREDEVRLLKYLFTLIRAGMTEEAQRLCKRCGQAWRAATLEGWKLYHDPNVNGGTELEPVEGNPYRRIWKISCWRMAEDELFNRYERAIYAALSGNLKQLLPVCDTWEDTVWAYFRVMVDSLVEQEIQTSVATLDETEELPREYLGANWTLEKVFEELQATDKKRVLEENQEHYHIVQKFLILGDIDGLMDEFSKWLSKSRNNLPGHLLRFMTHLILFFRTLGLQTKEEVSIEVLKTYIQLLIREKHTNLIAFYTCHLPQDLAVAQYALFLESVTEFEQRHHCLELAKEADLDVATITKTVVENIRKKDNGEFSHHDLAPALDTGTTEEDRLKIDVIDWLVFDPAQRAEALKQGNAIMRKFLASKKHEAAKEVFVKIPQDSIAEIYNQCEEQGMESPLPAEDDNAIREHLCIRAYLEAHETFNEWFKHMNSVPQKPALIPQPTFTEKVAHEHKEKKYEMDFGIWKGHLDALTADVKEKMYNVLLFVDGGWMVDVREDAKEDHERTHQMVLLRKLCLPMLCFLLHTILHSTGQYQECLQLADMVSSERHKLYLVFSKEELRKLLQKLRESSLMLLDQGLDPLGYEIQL

[6] = protein TB427.02.6180 IRON/ASCORBATE OXID[…] PROTEIN, vehicle control = 1
[7] = protein TB427.02.6180 IRON/ASCORBATE OXIDOREDUCTASE FAMILY PROTEIN, vehicle control = 1
[8] = HeLa, protein IPP (ACTIN-BINDING PROTEIN IPP)
[9] = relative to vehicle control = 1, protein TB427.02.6180 IRON/ASCORBATE OXIDOREDUCTASE FAMILY PROTEIN

Row | Compound | fold changes relative to vehicle control ([2]; captured protein DAGLB, HeLa) | fold changes relative to vehicle control ([3]; protein IPP, HeLa) | fold changes relative to vehicle control ([4]; HeLa, protein LPCAT1) | fold changes relative to vehicle control ([5]; HeLa, protein NUP107) | fold changes relative to vehicle control ([2]; HeLa, protein DAGLB) | fold changes relative to vehicle control [3, 8] | fold changes relative to vehicle control ([4]; protein LPCAT1, HeLa) | also measured
1 | Nc1nc2cccc(-c3ccccc3)c2n1Cc1ccc(Cl)c(Cl)c1 [compound 3] | 0.97 | 0.93 | 1.11 | 1.07 |  |  |  | percentage of competition from bead binding ([1]; multitargeted bead mixture, free ligand 100 μM, T. brucei lysate, Tb427.02.6180): 0%; fold change ([1]; relative to vehicle control = 1, protein TB427.02.6180 IRON/ASCORBATE OXID[…] PROTEIN): 0.9
2 | Nc1nc2[nH]cc(CCc3ccc(C(=O)N[C@@H](CCC(=O)O)C(=O)O)cc3)c2c(=O)[nH]1 [PTX, pemetrexed] |  |  |  |  |  |  |  | fold change [1, 6]: 0.95; fold changes relative to vehicle control [2]: 0.88; fold changes relative to vehicle control [3]: 0.92; fold changes relative to vehicle control [4]: 1; fold changes relative to vehicle control [5]: 0.98
3 | Nc1nc2c(c(=O)[nH]1)N(C=O)C(CNc1ccc(C(=O)N[C@@H](CCC(=O)O)C(=O)O)cc1)CN2 (stereo partly drawn) [LEU, leucovorin] |  |  |  | 1.01 | 1.01 | 0.99 | 0.85 | fold change [1, 7]: 0.92
4 | CCCCCCOc1cccc(Cc2cnc(N)nc2N)c1 [compound 2] | 1.07 | 1.05 | 1.07 | 1.03 |  |  |  | fold change [1, 9]: 0.92
5 | NCCOCCOCC(=O)Nc1nc2ncc(CNc3ccc(C(=O)NC(CCC(=O)O)C(=O)O)cc3)nc2c(=O)[nH]1 (stereo not drawn) [compound 6] |  |  |  | 1.18 | 1.07 | 0.89 | 0.92 | fold change [1, 7]: 0.28
6 | CCCCCCOc1ccc(Cc2cnc(N)nc2N)cc1 [compound 1] | 1.02 | 1.03 | 0.93 | 0.98 |  |  |  | fold change [1, 9]: 0.85
7 | NCCCNc1ccc(C(=O)NC(CCC(=O)O)C(=O)O)cc1 (stereo not drawn) [compound 7] |  |  |  | 1.26 | 1.04 | 0.9 | 1.07 | fold change [1, 6]: 1.02

From PMC6199744, “Development of Chemical Proteomics for the Folateome and Analysis of the Kinetoplastid Folateome” (ACS Infectious Diseases, 2018)
